13 compounds from patent publication US20240041886A1, “METHODS FOR TREATING SPINOCEREBELLAR ATAXIA TYPE 3” (PTC Therapeutics, Inc., priority 2021, published 2024) can be followed below.

Where two headings read alike, the source gives them in different places. A value given as a limit tells only on which side of the number the result lay.

Test [1] deals with Endogenous Total ATXN3 (tATXN3) Protein. Nature of the test: Endogenous Total ATXN3 (tATXN3) Protein Assay (MSD). The class given is cell-based. Particulars: for IC50: average IC50, total ATXN3 protein in cell lysate after 48 h, 7-point concentration curve. On the procedure:
Meso Scale Discovery (MSD) 96-well or 384-well plates were coated overnight at 4° C. with Ataxin 3 mouse monoclonal antibody (Invitrogen, MA3-082) at a concentration of 0.5 μg/mL in PBS (30 μL per well). Plates were then washed three times with 300 μL wash buffer (0.05% TWEEN®-20, polyethylene glycol sorbitan monolaurate, in PBS) and blocked (Meso Scale Diagnostics, R93BA-1; 5% BSA in PBS) for 2 h at RT with rotational shaking and then washed three times with wash buffer.
(§1) Test compounds were serially diluted 3.16-fold in 100% DMSO to generate a 7-point concentration curve. Aliquots of 0.5 μL of diluted compounds were transferred to a 96-well flat bottom plate by a liquid handler. An aliquot of 0.5 μL DMSO was also transferred to separate wells and used as controls. Duplicate samples were set up for each compound concentration and for the DMSO control.
Cells were thawed and incubated in cell culture media (DMEM, 10% FBS, and 1% antibiotic cocktail) for 72 h. Cells were trypsinized, counted, and re-suspended to a concentration of 100,000 cells/mL in cell culture media. A 100 μL aliquot of the cell suspensions were plated at 10,000 cells per well in the compound containing 96 well microtiter plate and incubated for in a cell culture incubator (37° C., 5% CO2, 100% relative humidity). After 48 h, the medium was removed and 50-100 μL of lysis buffer (Meso Scale Diagnostics, R60TX-2) containing 1× halt protease inhibitor cocktail of (Thermo Scientific, Halt™ Protease Inhibitor Cocktail, 78430) per well was added to cells to provide a “cell lysate”. The plate was placed on a shaker at 4° C. for 30 minutes, then stored at −80° C.
Cell lysate samples (25 μL) were transferred to the antibody-coated MSD plate and incubated overnight at 4° C. After removal of the lysates, the plate was washed three times with wash buffer, and 25 μL of Ataxin 3 recombinant rabbit monoclonal antibody (Invitrogen, #702788) secondary antibody (diluted to 0.25 μg/mL in 0.05% TWEEN®-20 in blocking buffer) was added to each well and incubated with shaking for 1-2 h at room temperature. Following incubation with the secondary antibody, the wells were rinsed with wash buffer and then […] Anti Rabbit Antibody Goat SULFO-TAG Labeled (Meso Scale Diagnostics, R32AB-1) detecting antibody (diluted to 0.25 μg/mL in 0.05% TWEEN®-20 in blocking buffer) was added to each well and incubated with shaking for 1 h at room temperature. After rinsing three times with wash buffer, 150 μL of Read Buffer T with surfactant (tris-based buffer containing tripropylamine, Meso Scale Diagnostics, R92TC-1) were added to each empty well, and the plate was imaged on a SI 6000 imager (MSD) according to manufacturers' instructions provided for 96- or 384-well plates.

Test [2] relates to ATXN3 Pre-mRNA. The test can be described thus: RT-qPCR Assay to Quantify Exon 4 Skipping in ATXN3 Pre-mRNA in Cells. Particulars: for IC50: percent exon 4 skipping by RT-qPCR after 24 h, 7-point concentration curve. The class given is cell-based. On the procedure: as §1
Cells were thawed and incubated in cell culture media (DMEM, 10% FBS, and 1% antibiotic cocktail) for 72 h. Cells were trypsinized, counted, and re-suspended to a concentration of 100,000 cells/mL in cell culture media. A 100 μL aliquot of the cell suspensions were plated at 10,000 cells per well in the compound containing 96 well microtiter plate and incubated for in a cell culture incubator (37° C., 5% CO2, 100% relative humidity).
After 24 h, media was aspirated from the cells and 50 μL of the RCL2 lysis buffer (10 mM Tris-HCL pH 7.4, 150 mM NaCl, 0.33% IGEPAL® CA-630) was added to each well and incubated at RT for 1 min. Chilled nuclease free water (50 μL per well) was added and the plates were immediately transferred on ice. After 1 min on ice, plates were frozen at −80° C. overnight.
Preparation of RT-qPCR Reaction Mixture:
An aliquot of 2 μL/well of the cell lysates was transferred using the liquid handler to the Armadillo 384-Well PCR plate containing 8 μL/well of the RT-qPCR reaction mixture that was prepared as detailed above. The plates were then sealed with MicroAmp™ Optical Adhesive Film followed by spinning down for 1 min and placed in the CFX384 thermocycler (BioRad).
The RT-qPCR was carried out at the following temperatures for the indicated time: • Step 1:48° C. (30 min) • Step 2: 95° C. (10 min) • Step 3: 95° C. (15 sec) • Step 4: 60° C. (1 min); then, repeated Steps 3 and 4 for a total of 40 cycles.
The percent exon 4 skipping was calculated for each dose of compound treatment using Equations 1 and 2.
Data were fit to a dose response curve and the IC50 was interpolated using XLfit® statistical and curve fitting package.
An IC50 value between >2.0 μM and ≤3.0 μM is indicated by one star (*). […] IC50 value between >0.5 μM and ≤1.0 μM is indicated by four stars (****). An IC50 value≤0.5 μM is indicated by five stars (*****).
In general terms: In qPCR the cycle at which signal appears reflects the starting amount.

With `Clc1nc(NCc2ccncc2)c2cc[nH]c2n1` [Comparison Compound 1, 2-chloro-N-(pyridin-4-ylmethyl)-7H-pyrrolo[2,3-d]pyrimidin-4-amine, reference compound], the “ATXN3 Protein IC50” value in test [1] (tested according to the assay of Example 1) is “inactive”. Further, in test [2] (tested according to the assay of Example 2), the “ATXN3 mRNA IC50” value was “inactive”.
Take `C[C@H](N)Cc1[nH]c2nc(Cl)nc(NCc3ccco3)c2c1F` [Cpd 10, 6-[(2S)-2-aminopropyl]-2-chloro-5-fluoro-N-[(furan-2-yl)methyl]-7H-pyrrolo[2,3-d]pyrimidin-4-amine]: the IC50 in test [1] (read-out: IC50) and in test [2] (read-out: IC50) was at most 0.5 µM throughout.
For the compound `CNCCc1[nH]c2nc(Cl)nc(NCc3ccco3)c2c1Cl` [Cpd 17, 2,5-dichloro-N-[(furan-2-yl)methyl]-6-[2-(methylamino)ethyl]-7H-pyrrolo[2,3-d]pyrimidin-4-amine], the half-inhibitory concentration (IC50) (in general, the midpoint of a concentration-inhibition curve) in test [1] (read-out: IC50) fell in the range of 1 to 1.5 µM; in test [2] (read-out: IC50), 1.5 to 2 µM.
In the case of `C[C@H](N)Cc1c(Cl)c2c(NCc3ccco3)nc(Cl)nc2n1C` [Cpd 23, 6-[(2S)-2-aminopropyl]-2,5-dichloro-N-[(furan-2-yl)methyl]-7-methyl-7H-pyrrolo[2,3-d]pyrimidin-4-amine], the IC50 in test [1] (read-out: IC50) and in test [2] (read-out: IC50) was 0.5 to 1 µM each time.
As to `C[C@H](N)Cc1c(F)c2c(NCc3ccco3)nc(Cl)nc2n1C` [Cpd 24, 6-[(2S)-2-aminopropyl]-2-chloro-5-fluoro-N-[(furan-2-yl)methyl]-7-methyl-7H-pyrrolo[2,3-d]pyrimidin-4-amine], the half-maximal inhibitory concentration (IC50) was 0.5 to 1 µM in test [1] (read-out: IC50) and 1 to 1.5 µM in test [2] (read-out: IC50).
For the compound `Cc1c(C[C@H](C)N)n(C)c2nc(Cl)nc(NCc3ccco3)c12` [Cpd 35, 6-[(2S)-2-aminopropyl]-2-chloro-N-[(furan-2-yl)methyl]-5,7-dimethyl-7H-pyrrolo[2,3-d]pyrimidin-4-amine], the IC50 in test [1] (read-out: IC50) and in test [2] (read-out: IC50) was at most 0.5 µM in each case.
With `C[C@H](N)Cc1c(F)c2c(NCc3nccs3)nc(Cl)nc2n1C` [Cpd 38, 6-[(2S)-2-aminopropyl]-2-chloro-5-fluoro-7-methyl-N-[(1,3-thiazol-2-yl)methyl]-7H-pyrrolo[2,3-d]pyrimidin-4-amine], the IC50 in test [1] (read-out: IC50) and in test [2] (read-out: IC50) was 1 to 1.5 µM in each case.
Consider `C[C@H](N)Cc1c(F)c2c(NCc3ccncc3F)nc(Cl)nc2n1C` [Cpd 41, 6-[(2S)-2-aminopropyl]-2-chloro-5-fluoro-N-[(3-fluoropyridin-4-yl)methyl]-7-methyl-7H-pyrrolo[2,3-d]pyrimidin-4-amine], for which the concentration for half-maximal inhibition (IC50) was 1 to 1.5 µM in test [1] (read-out: IC50) and 2 to 3 µM in test [2] (read-out: IC50).
As to `C[C@H](N)Cc1c(F)c2c(NCc3ccncc3)nc(Cl)nc2n1C` [Cpd 43, 6-[(2S)-2-aminopropyl]-2-chloro-5-fluoro-7-methyl-N-[(pyridin-4-yl)methyl]-7H-pyrrolo[2,3-d]pyrimidin-4-amine], the IC50 is 1.5 to 2 µM in test [1] (read-out: IC50) and 2 to 3 µM in test [2] (read-out: IC50).
Take `C[C@H](N)Cc1c(F)c2c(NCc3cncs3)nc(Cl)nc2n1C` [Cpd 48, 6-[(2S)-2-aminopropyl]-2-chloro-5-fluoro-7-methyl-N-[(1,3-thiazol-5-yl)methyl]-7H-pyrrolo[2,3-d]pyrimidin-4-amine]: the IC50 result in test [1] and in test [2] was “inactive” throughout.
As to `C[C@H](N)Cc1c(F)c2c(NCc3cccs3)nc(Cl)nc2n1C` [Cpd 49, 6-[(2S)-2-aminopropyl]-2-chloro-5-fluoro-7-methyl-N-[(thiophen-2-yl)methyl]-7H-pyrrolo[2,3-d]pyrimidin-4-amine], the concentration for half-maximal inhibition (IC50) in test [1] (read-out: IC50) is 1 to 1.5 µM; in test [2] (read-out: IC50), 0.5 to 1 µM.
For the compound `C[C@H](N)Cc1c(F)c2c(NCc3ccccn3)nc(Cl)nc2n1C` [Cpd 55, 6-[(2S)-2-aminopropyl]-2-chloro-5-fluoro-7-methyl-N-[(pyridin-2-yl)methyl]-7H-pyrrolo[2,3-d]pyrimidin-4-amine], the IC50 result in test [1] and in test [2] was “inactive” each time.
Take `C[C@H](N)Cc1c(F)c2c(NCc3cccnc3)nc(Cl)nc2n1C` [Cpd 57, 6-[(2S)-2-aminopropyl]-2-chloro-5-fluoro-7-methyl-N-[(pyridin-3-yl)methyl]-7H-pyrrolo[2,3-d]pyrimidin-4-amine]: the IC50 entry in test [1] and in test [2] was “inactive” each time.
